From patent US8710055B2, “Triazolylphenyl sulfonamides as serine/threonine kinase inhibitors” (Boehringer Ingelheim International GmbH, priority 2010, dated 2014) come the findings set out here.

One may read the EC50 as the concentration that produces a half-maximal response.

The structures appear in SMILES notation.

This experiment relates to SK-MEL-28 cells (B-RAF V600E mutated). As to the kind of experiment: Inhibition of the proliferation of cultivated human melanoma cells (SK-MEL-28), AlamarBlue. Format: cell-based. Conditions: 72 h incubation. Here is the method:
Measurement of the Inhibition of the Proliferation of Cultivated Human Melanoma Cells (SK-MEL-28, B-RAF^[…] Mutated)
For measuring the proliferation of cultivated human tumour cells, cells of the melanoma cell line SK-MEL-28 [from American Type Culture Collection (ATCC)] are cultivated in MEM medium, supplemented with 10% foetal calf serum, 2% sodium bicarbonate, 1 mM sodium pyruvate, 1% non-essential amino acids (e.g. from Cambrex, # BE13-114E) and 2 mM glutamine. SK-MEL-28 cells are placed in 96-well flat bottomed dishes in a density of 2500 cells per well in supplemented MEM medium (see above) and incubated overnight in an incubator (at 37° C. and 5% CO2). The active substances are added to the cells in different concentrations, so that a concentration range of 50 μM to 3.2 nM is covered. If necessary the initial concentration of 50 μM is changed to 10 μM or 2 μM and further dilution is carried out accordingly (up to 0.6 nM or 0.12 nM). After an incubation period of a further 72 h 20 μL AlamarBlue reagent (Serotec Ltd., # BUF012B) are added to each well and the cells are incubated for a further 3-6 h. The colour change of the AlamarBlue reagent is determined in a fluorescence spectrophotometer (e.g. Gemini, Molecular Devices). EC50 values are calculated using a software program (GraphPadPrizm).
(In general: Alamar Blue is a resazurin reagent that responds to reducing activity.)
The molecule `CCCS(=O)(=O)Nc1ccc(F)c(-n2cc(-c3cncc(N4CCN(CC)CC4)c3)nn2)c1Cl` [Example I-66] had an EC50 of 55 nM. Molecule `O=S(=O)(Nc1ccc(F)c(-n2cc(-c3cncc(N4CCN(C5CC5)CC4)c3)nn2)c1Cl)c1ccoc1` [Example I-67] showed an EC50 of 4 nM. To `CC(C)N1CCN(c2cncc(-c3cn(-c4c(F)ccc(NS(=O)(=O)c5ccoc5)c4Cl)nn3)c2)CC1` [Example I-68] belongs 6 nM.

In the case of `CC(C)(C)N1CCN(c2cncc(-c3cn(-c4c(F)ccc(NS(=O)(=O)c5ccoc5)c4Cl)nn3)c2)CC1` [Example I-69], a half-maximal effect (EC50) was put at 5 nM. `O=S(=O)(Nc1ccc(F)c(-n2cc(-c3cncc(Br)c3)nn2)c1Cl)c1ccoc1` [Example I-70] gave an EC50 of 73 nM. Take `O=S(=O)(Nc1ccc(F)c(-n2cc(-c3cncc(Cl)c3)nn2)c1Cl)c1ccoc1` [Example I-71]: the EC50 is 61 nM.

`C#CCN1CCN(c2cncc(-c3cn(-c4c(F)ccc(NS(=O)(=O)c5ccoc5)c4Cl)nn3)c2)CC1` [Example I-72] came in with an EC50 of 10 nM. Molecule `C#CCN1CCN(c2cncc(-c3cn(-c4c(F)ccc(NS(=O)(=O)CCC)c4Cl)nn3)c2)CC1` [Example I-73] showed an EC50 of 44 nM. This EC50 lies about 4.4-fold higher than the previous one. To `CCN1CCN(c2cncc(-c3cn(-c4c(F)ccc(NS(=O)(=O)c5ccoc5)c4Cl)nn3)c2)CC1` [Example I-74] belongs 5 nM; to `CCCS(=O)(=O)Nc1ccc(F)c(-n2cc(-c3cncc(OC)c3)nn2)c1Cl` [Example I-75], 273 nM. In the case of `CCCS(=O)(=O)Nc1ccc(F)c(-n2cc(-c3cncc(N4CCN(C(C)(C)C)CC4)c3)nn2)c1Cl` [Example I-76], it took 65 nM to reach a half-maximal effect (EC50). Against the preceding molecule, the EC50 is about 4.2-fold lower.
